Results published in the NIST ThermoML archive (doi:10.1021/je049762q).
Numbers after ± are expanded uncertainties.

What was measured:
[1] = Molar enthalpy of transition or fusion

Structure (SMILES): Brc1cc(Br)cc(Br)c1 [1,3,5-tribromobenzene]
- Molar enthalpy of transition or fusion ([1]; Crystal): 21.72 ± 0.051 kJ/mol
- Triple point temperature (Crystal): 394.96 ± 0.16 K

Structure (SMILES): Clc1cc(Cl)cc(Cl)c1 [1,3,5-trichlorobenzene]
- Molar enthalpy of transition or fusion ([1]; Crystal): 17.56 ± 0.09 kJ/mol
- Triple point temperature (Crystal): 335.92 ± 0.09 K

Structure (SMILES): Clc1ccc(Cl)cc1 [1,4-dichlorobenzene]
- Molar enthalpy of transition or fusion ([1]; Crystal 1): 17.91 ± 0.064 kJ/mol
- Molar enthalpy of transition or fusion ([1]; Crystal 2): 0.181 ± 0.051 kJ/mol
- Molar enthalpy of transition or fusion ([1]; Crystal 3): 1.24 ± 0.051 kJ/mol
- Triple point temperature (Crystal 1): 326.24 ± 0.09 K
- Triple point temperature (Crystal 2): 306 ± 2 K
- Triple point temperature (Crystal 3): 275 ± 0.4 K

Structure (SMILES): Brc1ccc(Br)cc1 [1,4-dibromobenzene]
- Molar enthalpy of transition or fusion ([1]; Crystal): 20.39 ± 0.066 kJ/mol
- Triple point temperature (Crystal): 360.48 ± 0.09 K
